The values below come from publication PMC11619978 (Heliyon, 2024).

Entries after “also recorded” stand apart in the source; their conditions may differ.

The target in series [1] is T1, human pancreatic α-amylase (Homo sapiens, UniProt P04746).
T1 sequence (P04746 16-511): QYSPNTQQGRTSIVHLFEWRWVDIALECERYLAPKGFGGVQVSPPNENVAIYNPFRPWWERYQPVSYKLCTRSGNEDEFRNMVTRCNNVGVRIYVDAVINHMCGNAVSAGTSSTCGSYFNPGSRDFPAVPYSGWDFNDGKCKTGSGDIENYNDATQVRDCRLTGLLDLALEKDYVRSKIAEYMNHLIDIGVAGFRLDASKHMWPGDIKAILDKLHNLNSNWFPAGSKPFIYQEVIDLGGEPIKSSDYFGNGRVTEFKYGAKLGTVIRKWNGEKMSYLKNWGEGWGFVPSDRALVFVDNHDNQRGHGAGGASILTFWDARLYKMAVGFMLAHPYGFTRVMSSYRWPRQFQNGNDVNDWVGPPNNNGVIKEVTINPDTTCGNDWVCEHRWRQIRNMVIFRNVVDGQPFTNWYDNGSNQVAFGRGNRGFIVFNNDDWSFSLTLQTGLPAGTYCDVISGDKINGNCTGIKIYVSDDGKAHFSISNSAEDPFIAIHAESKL
The series can be described thus: α-amylase inhibition assay. The series is classed as biochemical.

Series [2] deals with human lysosomal acid-α-glucosidase (Homo sapiens, UniProt P10253). The series can be described thus: α-glucosidase inhibition assay. The series is classed as biochemical.
In the next series the target is α-glucosidase (Homo sapiens, UniProt P10253). The series can be described thus: enzymatic kinetic study on α-glucosidase. The series is classed as biochemical. The note with it: for mode of α-glucosidase inhibition: Lineweaver-Burk plot.
The next series concerns the target T2, α-amylase (Homo sapiens, UniProt P04746).
T2 sequence (P04746 16-511): T1 sequence (P04746 16-511)
The series can be described thus: enzymatic kinetic study on α-amylase. The format is biochemical. The conditions noted are these: for mode of α-amylase inhibition: Lineweaver-Burk plot.

For the next series, the system named is female mice. The series can be described thus: acute oral toxicity. The series is classed as in vivo. The conditions noted are these: three female mice.

By IC50 is commonly meant the concentration that inhibits the measured activity by half. Low readings indicate greater potency, high ones weaker potency. With `CNC(=S)N/N=C/c1cccc(C[C@@H]2C[C@H]3C(=O)N(C)[C@@]4(C[C@H](C)CC[C@H]4C(C)C)N3O2)c1O` [5g], the IC50 in series [1] worked out at 64.2 ± 3.15 µM; in series [2], 158 ± 7.09 µM.
As for `C[C@H]1O[C@H](O[C@H]2[C@H](O)[C@@H](O)[C@@H](O[C@H]3[C@H](O)[C@@H](O)C(O)O[C@@H]3CO)O[C@@H]2CO)[C@H](O)[C@@H](O)[C@@H]1N[C@H]1C=C(CO)[C@@H](O)[C@H](O)[C@H]1O` (stereo partly drawn) [Acarbose, reference compound], the “mode of α-glucosidase inhibition” value on α-glucosidase is reported as “competitive; also recorded: compete with the substrate for binding to the active site”. For the same molecule, on α-amylase, the “mode of α-amylase inhibition” value is listed as “competitive”.
As to `CC(C)[C@@H]1CC[C@@H](C)C[C@@]12N(C)C(=O)[C@@H]1C[C@@H](Cc3cccc(/C=N/NC(N)=S)c3O)ON12` [5e], the values for the IC50 in series [1] and in series [2] were 33.9 ± 1.09 µM and 49.3 ± 2.19 µM, respectively.
On the same counts, the results for `CCNC(=S)N/N=C/c1cccc(C[C@@H]2C[C@H]3C(=O)N(C)[C@@]4(C[C@H](C)CC[C@H]4C(C)C)N3O2)c1O` [5c] are 73.1 ± 3.31 µM and 203 ± 10 µM.
With `CC(C)[C@@H]1CC[C@@H](C)C[C@@]12N(C)C(=O)[C@@H]1C[C@@H](Cc3cccc(/C=N/NC(=S)Nc4ccccc4)c3O)ON12` [5b], the half-maximal inhibitory concentration (IC50) in series [1] came out at 198 ± 9.5 µM; in series [2], 286 ± 13.5 µM.
On the same counts, the results for `CC(C)[C@@H]1CC[C@@H](C)C[C@@]12N(C)C(=O)[C@@H]1C[C@@H](Cc3cccc(/C=N/NC(=O)Nc4ccccc4)c3O)ON12` [5a] are 151 ± 7.4 µM and 263 ± 12.2 µM.
As usually defined, the Ki is a dissociation constant, usually derived from enzyme kinetics or from competition with a known ligand. A lower Ki goes with higher affinity. With `CC(C)[C@@H]1CC[C@@H](C)C[C@@]12N(C)C(=O)[C@@H]1C[C@@H](Cc3cccc(/C=N/NC(N)=O)c3O)ON12` [5f], the figures for the IC50 in series [1] and in series [2] were 26.7 ± 1.25 µM and 39.1 ± 1.83 µM, respectively. Also, in series [1] (versus acarbose IC50), the “fold improvement over acarbose, α-amylase” value is “about 11 fold”. Moreover, the Ki at α-glucosidase amounted to 37 µM; at α-amylase it was 24.9 µM. Also, the “mode of α-glucosidase inhibition” value at α-glucosidase is reported as “competitive; also recorded: compete with the substrate for binding to the active site”. For the same molecule, in the series on female mice (1600 mg/kg b.w.), the “survival at 1600 mg/kg b.w.” value was “only one mouse was survived”. For the same molecule, in the series on female mice, the “dose with no toxicity (no significant adverse effects or mortality)” value is on record as “up to 1000 mg/kg b.w”. In series [2] (versus acarbose IC50), the “fold improvement over acarbose, α-glucosidase” value is on record as approximately 20 fold. For the same molecule, the “mode of α-amylase inhibition” value at α-amylase is listed as “competitive inhibition”.
As to `CC(C)[C@@H]1CC[C@@H](C)C[C@@]12N(C)C(=O)[C@@H]1C[C@@H](Cc3cccc(/C=N/NC(=S)N(C)C)c3O)ON12` [5d], the values for the IC50 in series [1] and in series [2] were 58.8 ± 2.22 µM and 98.6 ± 4.35 µM, respectively.
